The subject of one assay is CaOV-3 cells. The assay is described as follows: Viability of CaOV-3 ovarian cancer cells (MTT assay). Type of assay: cell-based, human. As to conditions: for inhibition at 100 µM / IC50: Homo sapiens, Caov-3, 72 hours; for inhibition at 100 µM: read-out: Decrease in cell number (maximal decrease = 100%), CaOV-3. How it is done: (§1) To quantify cell death, around the time when significant and characteristic morphological changes took place, cells were pulse-labeled for 10 minutes with [^3H]thymidine to measure DNA activity as described elsewhere [Tomono, M. and Kiss, Z. (1995), “Ethanol enhances the stimulatory effects of insulin and insulin-like growth factor-I on DNA synthesis in NIH 3T3 fibroblasts,” Biochem. Biophys. Res. Commun. 208, 63-67]. Also, cells were collected as suspensions using trypsin, an established method in cell biology, followed by re-plating of cells in fresh tissue culture medium. If no viable cells were obtained after one week in culture, it meant that the cells at the time of re-plating were dead. Survival values obtained with untreated cells were considered 100%. For the determination of relative number of viable cells after treatments, in most cases the MTT assay was used. This calorimetric assay is based on the ability of living cells, but not dead cells, to reduce 3-(4,5-dimethyl thiazol-2-yl)-2,5-diphenyltetrazolium bromide [Carmichael, J, De Graff, W. G., Gazdar, A. F., Minna, J. D. and Mitchell, J. B. (1987), “Evaluation of tetrazolium-based semi-automated calorimetric assay: Assessment of chemosensitivity testing,” Cancer Res. 47, 936-942]. For this assay, cells were plated in 96-well plates, and the MTT assay was performed both in untreated and treated cell cultures. The MTT assay also was performed at the start of treatments to allow assessment of proliferation rates in the control and treated cell cultures.
(§2) NIH3T3, T47D, A-431, HT-29, and MEL-28 cells were cultured as indicated earlier. CaOV-3 human ovarian cancer cells were cultured in DMEM containing 10% FBS. ZR-75-1 human estrogen receptor-positive breast cancer cells were maintained in RPMI 1640 medium supplemented with 10% FBS. HTB-157 human fetal fibroblasts, MEL-24 human malignant melanoma cells, Hep G2 human hepatoblastoma cells, and CaCO-2 human colon adenocarcinoma cells were maintained in Eagles's MEM containing 10% FBS. MB-231 human estrogen receptor-negative breast cancer cells were maintained in Leibovitz's L-15 medium supplemented with 10% FBS. Cells were seeded into 96-well plates and treated at ˜70-90% confluency. Two hours prior to treatments the medium was changed for fresh 10% serum medium, and then the cells were incubated for 10 days in the absence (□) or presence of 50 μM CCDTHT ? or 100 μM CCDTHT (▪). The medium was changed and the cells were re-treated on days 3 and 6. The MTT assay was used to determine cell viability on day 10. The data, shown in FIG. 6, are the mean±std. dev. of 8 incubations in one experiment. (The experiment was repeated twice with similar results).
The MRC-5 cell line is derived from normal lung tissue of a […] fetus. MRC-5 cells were maintained and treated in Eagles Medium with Hanks' BSS containing 10% fetal bovine serum. The T47D cells were maintained and treated in RPMI 1640 medium supplemented with 0.2 IU bovine insulin and 10% fetal bovine serum. The CaOV-3 human ovarian cancer cells were cultured in Dulbecco's modified Eagle's medium containing 10% fetal bovine serum. The cells were seeded in 96-well plates either at 10,000 cells per well or 30,000 cells per well to examine the antiproliferative and cytotoxic effects of various CC compounds, respectively. The cells were incubated for 24 hours, then the medium was changed followed by the treatments of cultures 2 hours after the medium change. At this point, cell cultures seeded at 10,000 cells per well and 30,000 cells per well were 25-35% and 80-90% confluent, respectively. Incubations were continued for 72 hours followed by the MTT assay. The data, shown in TABLE 2, indicate the inhibitory concentrations of CC compounds (IC50) required for 50% decrease in the number of viable cells. These numbers are calculated from the mean of 4 incubations in one experiment (the experiment was repeated once with similar results). […]
A general note: Tetrazolium dyes change colour on reduction, which living cells bring about.

Another assay concerns MEL-28 cells. As to the kind of experiment: Viability of MEL-28 melanoma cells. It is filed as cell-based, human. The settings on record: for inhibition at 100 µM: Homo sapiens, SK-MEL-28, read-out: Decrease in cell number (maximal decrease = 100%), MEL-28. How it is done:
as §1
About 60% confluent cultures of MEL-28 cells, cultured in 12-well plates in MEM medium supplemented with 10% FBS, were either untreated (FIG. 2A), or were treated with 100 μM CCDTHT (CCompound3) for 72 hours (FIG. 2B).
The NIH 3T3 (normal) mouse fibroblast, A431 human epidermoid adenocarcinoma, and MCF-7 human breast cancer cells were cultured in DMEM medium containing 10% FBS. The MEL-28 human melanoma cells were cultured in MEM medium containing 10% FBS. The HT-29 human colon adenocarcinoma cells were cultured in McCoy's 5a medium containing 10% FBS. The A549 human lung carcinoma cells were maintained in Ham's F12K medium containing 10% FBS. Cells were seeded into 96-well plates and treated at ˜70-90% confluency. Two hours before treatments the medium was changed for fresh 10% serum medium, and then the cells were incubated for 72 hours in the presence of 0-200 μM of CCompound1 (●) or CCompound3 (CCDTHT) (▴), as indicated. The MTT assay was used to determine cell viability after treatments. The values, shown in FIGS. 5A-5F and expressed as percent decrease in viability compared to the untreated control cells, are the mean±std. dev. of 8 incubations in one experiment.
as §2, with “experiment.” for “experiment. (The experiment was repeated twice with similar results).”

The structures appear in SMILES notation. Where a name gives a salt, the structure may show the parent alone. Read-outs that look alike come from different tables or passages of the source.

With `CC[N+](CC)(CCO)Cc1ccc2sc3ccccc3c(=O)c2c1` [CCcompound14, 2-Hydroxy-N,N-Diethyl-N-[(9-oxo-9H-thioxanthen-2-yl)methyl]-ethanaminium bromide], the inhibition at 100 µM with CaOV-3 cells stood at 69%; in the assay on MEL-28 cells (100 μM, 72 hours), 90%.

With `C[N+](C)(CCO)Cc1ccc2sc3ccccc3c(=O)c2c1` [CCcompound13, 2-Hydroxy-N,N-dimethyl-N-[(9-oxo-9H-thioxanthen-2-yl)methyl]-ethanaminium bromide], the inhibition at 100 µM was determined as 53% in the assay with CaOV-3 cells and 11% with MEL-28 cells (100 μM, 72 hours).

As to `C[N+](C)(CCCO)Cc1ccc2sc3ccccc3c(=O)c2c1` [CCcompound15, 3-Hydroxy-N,N-dimethyl-N-[(9-oxo-9H-thioxanthen-2-yl)methyl]propane-1-aminium bromide], the inhibition at 100 µM turned out to be 28% with CaOV-3 cells and 19% with MEL-28 cells (100 μM, 72 hours).

For the compound `CC[N+](C)(CC)CCCOCc1ccc2sc3ccccc3c(=O)c2c1` [CCcompound10, N,N-Diethyl-N-methyl-3-[(9-oxo-9H-thioxanthen-2-yl)methoxy]-propane-1-aminium iodide], the inhibition at 100 µM with CaOV-3 cells came to 45%; with MEL-28 cells (100 μM, 72 hours) it was 11%.

Turning to `CC[N+](CC)(CCCO)Cc1ccc2sc3ccccc3c(=O)c2c1` [CCcompound16, 3-Hydroxy-N,N-diethyl-N-[(9-oxo-9H-thioxanthen-2-yl)methyl]-propane-1-aminium bromide], the inhibition at 100 µM in the assay with CaOV-3 cells is 12%; in the assay on MEL-28 cells (100 μM, 72 hours), 10%.

Take `CC[NH+](CC)CCCOCc1ccc2sc3ccccc3c(=O)c2c1` [CCcompound12, 2-{[3-(Diethylamino)propoxy]meth-yl}-9H-thioxanthen-9-one hydrochloride]: the inhibition at 100 µM in the assay with CaOV-3 cells worked out at 80%; with MEL-28 cells (100 μM, 72 hours), 71%.

Consider `CC[N+](C)(C)CCCOCc1ccc2sc3ccccc3c(=O)c2c1` [CCcompound11, N,N-Dimethyl-N-ethyl-3-[(9-oxo-9H-thioxanthen-2-yl)methoxy]-propane-1-aminium iodide], for which the inhibition at 100 µM with CaOV-3 cells is 66%; with MEL-28 cells (100 μM, 72 hours) it was 94%.

Consider `CC[N+](CC)(CC)CCCOCc1ccc2sc3ccccc3c(=O)c2c1` [CCcompound9, N,N,N-Triethyl-3-[(9-oxo-9H-thioxanthen-2-yl)methoxy]-propane-1-aminium iodide], for which the inhibition at 100 µM came to 45% in the assay on CaOV-3 cells and 14% in the assay with MEL-28 cells (100 μM, 72 hours).

In the case of `CC[N+](C)(CC)CCOCc1ccc2sc3ccccc3c(=O)c2c1.[I-]` [CCDTHT, N,N-diethyl-N-methyl-2-[(9-oxo-9H-thioxanthen-2-yl)methoxy]-ethanaminium iodide], in the assay with CaOV-3 cells (50 and 100 μM, 10 days, MTT), the “sensitivity to the inhibitory actions, CaOV-3” value was “very sensitive”. Moreover, the inhibition at 100 µM in the assay with CaOV-3 cells is 84%; in the assay on MEL-28 cells (100 μM, 72 hours) it was 60%. Moreover, the IC50 (as a rule, the midpoint of a concentration-inhibition curve) stood at 38 µM in the assay with CaOV-3 cells (10,000 cells per well (25-35% confluent), MTT, read-out: IC50 values, Antiproliferative, CaOV-3) and 39 µM with CaOV-3 cells (30,000 cells per well (80-90% confluent), MTT, read-out: IC50 values, Cytotoxic, CaOV-3). Moreover, in the assay with MEL-28 cells (0-200 μM, 72 hours, MTT), the “reduction of cell numbers, MEL-28, CCDTHT versus CCompound1” value is on record as “clearly more effective than CCompound1”. In the assay on MEL-28 cells (50 μM 48 hours, then 96 hours without CCDTHT), the “reversibility: proliferation in fresh medium after treatment, MEL-28” value is on record as “not sufficient to suppress proliferation”. Besides, the “DNA synthesis (radiolabeled thymidine), MEL-28” value in the assay with MEL-28 cells (100 μM, 72 hours) was “did not synthesize detectable amount of DNA”. For the same compound, in the assay with MEL-28 cells (100 μM, 72 hours, 12-well plates), the “morphology / cell death, MEL-28” value was “practically all cells rounded up”. Moreover, the “decrease in the number of viable cells versus 0.5 mM HC-3, MEL-28” value in the assay with MEL-28 cells (100 μM, 72 hours, MTT) was “much greater decreases in the number of viable cells compared to 0.5 mM HC-3”. Also, in the assay on MEL-28 cells (50 and 100 μM, 10 days, MTT), the “sensitivity to the inhibitory actions, MEL-28” value is “very sensitive”.
